Patent publication US7001906B2, “Pyrido-pyrido-pyrrolo pyrrolo-indole and pyrido-pyrrolo pyrrolo carbazole derivatives, method for the production thereof and pharmaceutical compositions containing said derivatives” (Les Laboratoires Servier, priority 2001, dated 2006)
pIC50: −log10 of the molar value.

Columns and labels:
Format in all cases: cell-based
[1] = tested on: neuroblastoma SK-N-MC; assay: In vitro cytotoxicity on human cell lines: neuroblastoma SK-N-MC; conditions: 96 h, incubation 4 days
Method: (§1) Murine leukaemia L1210 was used in vitro. The cells are cultured in RPMI 1640 complete culture medium containing 10% foetal calf serum, 2 mM glutamine, 50 units/ml of penicillin, 50 μg/ml of streptomycin and 10 mM Hepes, pH: 7.4. The cells are distributed on microplates and exposed to the cytotoxic compounds for 4 doubling periods, or 48 hours. The number of viable cells is then quantified by means of a colorimetric assay, the Microculture Tetrazolium Assay (J. Carmichael et al., Cancer Res., 47, 936–942, (1987)). The results are expressed as IC50, the concentration of cytotoxic agent which inhibits the proliferation of the treated cells by 50%.
(§2) The compounds of the invention were also tested on human cell lines according to the same experimental protocol as that described for murine leukaemia L1210, but with incubation times of 4 days instead of 2 days.

[2] = tested on: epidermoid carcinoma A431; assay: In vitro cytotoxicity on human cell lines: epidermoid carcinoma A431; conditions: A-431, 96 h, epidermoid carcinoma A431, incubation 4 days
Method: as §1, §2

[3] = tested on: small cell lung carcinoma H 69; assay: In vitro cytotoxicity on human cell lines: small cell lung carcinoma H 69; conditions: 96 h, small cell lung carcinoma H 69, incubation 4 days
Method: as §1, §2

[4] = tested on: Murine leukaemia L1210; assay: In vitro cytotoxicity, murine leukaemia L1210 (Microculture Tetrazolium Assay); conditions: Mus musculus; L1210, exposure 4 doubling periods, or 48 hours; read-out: IC50, the concentration of cytotoxic agent which inhibits the proliferation of the treated cells by 50%
Method: as §1

SMILES | pIC50 [1] | pIC50 [2] | pIC50 [3] | pIC50 [4]
O=C1NC(=O)c2c1c1c3ccccc3[nH]c1c1c2c2cccnc2n1[C@@H]1O[C@H](CO)[C@@H](O)[C@H](O)[C@H]1O [Example 3, 13-(β-D-glucopyranosyl)-12,13-dihydro-5H-pyrido[3′,2′:4,5]pyrrolo-[2,3-a]pyrrolo[3,4-c]carbazole-5,7(6H)-dione] | > 6.00 | > 6.00 | > 6.00 | –
CN1C(=O)c2c(c3c4cccnc4n([C@@H]4O[C@H](CO)[C@@H](O)[C@H](O)[C@H]4O)c3c3[nH]c4ccccc4c23)C1=O [Example 17, 13-(β-D-glucopyranosyl)-6-methyl-12,13-dihydro-5H-pyrido-[3′,2′:4,5]pyrrolo [2,3-a]pyrrolo [3,4-c]carbazole-5,7(6H)-dione] | > 6.00 | > 6.00 | > 6.00 | –
O=C1NC(=O)c2c1c1c3cccnc3[nH]c1c1c2c2cccnc2n1[C@@H]1O[C@H](CO)[C@@H](O)[C@H](O)[C@H]1O [Example 12, 12-(β-D-glucopyranosyl)-12,13-dihydro-5H-pyrido[2,3-b]-pyrido[3′,2′:4,5]pyrrolo[3,2-g]pyrrolo[3,4-e]indole-5,7(6H)-dione] | – | – | – | > 7.00
O=C1NC(=O)c2c1c1c3cc(Br)ccc3[nH]c1c1c2c2cccnc2n1[C@@H]1O[C@H](CO)[C@@H](O)[C@H](O)[C@H]1O [Example 4, 9-bromo-13-(β-D-glucopyranosyl)-12,13-dihydro-5H-pyrido-[3′,2′:4,5]pyrrolo[2,3-a]pyrrolo [3,4-c]carbazole-5,7(6H)-dione] | > 6.00 | > 6.00 | > 6.00 | > 7.00
CN1C(=O)c2c(c3c4cccnc4n([C@@H]4O[C@H](CO)[C@@H](O)[C@H](O)[C@H]4O)c3c3[nH]c4ccc(Br)cc4c23)C1=O [Example 19, 13-(β-D-glucopyranosyl)-9-bromo-6-methyl-12,13-dihydro-5H-pyrido[3′,2′:4,5]pyrrolo[2,3-a]pyrrolo[3,4-c]carbazole-5,7(6H)-dione] | > 6.00 | > 6.00 | > 6.00 | –
O=C1NC(=O)c2c1c1c3cc([N+](=O)[O-])ccc3[nH]c1c1c2c2cccnc2n1[C@@H]1O[C@H](CO)[C@@H](O)[C@H](O)[C@H]1O [Example 5, 9-nitro-13-(β-D-glucopyranosyl)-12,13-dihydro-5H-pyrido-[3′,2′:4,5]pyrrolo[2,3-a]pyrrolo[3,4-c]carbazole-5,7(6H)-dione] | > 6.00 | > 6.00 | > 6.00 | > 7.00
O=C1NC(=O)c2c1c1c3cccnc3[nH]c1c1c2c2ccccc2n1[C@@H]1O[C@H](CO)[C@@H](O)[C@H](O)[C@H]1O [Example 9, 12-(β-D-glucopyranosyl)-12,13-dihydro-5H-pyrido[3′,2′:4,5]pyrrolo-[2,3-a]pyrrolo[3,4-c]carbazole-5,7(6H)-dione] | – | – | – | > 7.00
